Results reported in ChEMBL document CHEMBL1156528, “Acetyl-lysine analog peptides as mechanistic probes of protein deacetylases” (J Biol Chem, 2007).

Target: NAD-dependent protein deacetylase HST2 (Saccharomyces cerevisiae S288c) (UniProt P53686)
Assay: Ratio of Vmax to Km for Saccharomyces cerevisiae Hst2

Chain of NAD-dependent protein deacetylase HST2 (Saccharomyces cerevisiae S288c) (P53686 whole entry): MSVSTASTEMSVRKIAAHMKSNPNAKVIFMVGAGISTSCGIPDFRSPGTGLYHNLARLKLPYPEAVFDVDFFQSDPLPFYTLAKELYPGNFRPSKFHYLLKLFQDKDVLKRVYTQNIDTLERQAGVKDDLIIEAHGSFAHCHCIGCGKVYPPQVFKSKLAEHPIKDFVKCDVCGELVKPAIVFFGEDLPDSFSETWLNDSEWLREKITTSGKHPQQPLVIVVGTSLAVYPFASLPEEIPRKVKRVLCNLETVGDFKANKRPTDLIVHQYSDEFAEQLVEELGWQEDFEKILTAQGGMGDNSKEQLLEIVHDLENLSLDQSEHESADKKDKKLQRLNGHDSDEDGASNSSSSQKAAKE

Ratio: 7.4 ×10³ /M/s
Compound: C[C@H](NC(=O)[C@H](CCCCNC(N)=O)NC(=O)CNC(=O)CNC(=O)[C@@H](NC(=O)[C@H](CO)NC(=O)[C@@H](N)CCCCN)[C@@H](C)O)C(=O)N1CCC[C@H]1C(=O)N[C@@H](CCCNC(=N)N)C(=O)N[C@@H](CCCCN)C(=O)N[C@@H](CCC(N)=O)C(=O)O
